Reference: ChEMBL document CHEMBL5291721, “A preclinical secondary pharmacology resource illuminates target-adverse drug reaction associations of marketed drugs” (Nat Commun, 2023)

What was measured:
[1] = target: T1, Alpha-2A adrenergic receptor (Homo sapiens, UniProt P08913); assay type: functional, cell-based
T1 sequence (P08913 whole entry): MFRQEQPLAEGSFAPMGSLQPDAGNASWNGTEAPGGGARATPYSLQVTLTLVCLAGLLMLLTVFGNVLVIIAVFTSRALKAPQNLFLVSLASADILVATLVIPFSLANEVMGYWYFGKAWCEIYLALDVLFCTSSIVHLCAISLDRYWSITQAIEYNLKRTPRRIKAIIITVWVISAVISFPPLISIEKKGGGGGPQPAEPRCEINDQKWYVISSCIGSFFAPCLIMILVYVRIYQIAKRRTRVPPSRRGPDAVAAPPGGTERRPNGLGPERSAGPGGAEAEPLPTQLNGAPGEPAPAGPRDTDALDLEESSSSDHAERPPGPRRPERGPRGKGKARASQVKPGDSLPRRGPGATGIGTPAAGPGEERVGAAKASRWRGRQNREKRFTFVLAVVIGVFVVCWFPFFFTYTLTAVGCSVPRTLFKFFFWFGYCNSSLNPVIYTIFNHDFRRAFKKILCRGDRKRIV

[2] = target: T2, Alpha-2C adrenergic receptor (Homo sapiens, UniProt P18825); assay type: functional
T2 sequence (P18825 whole entry): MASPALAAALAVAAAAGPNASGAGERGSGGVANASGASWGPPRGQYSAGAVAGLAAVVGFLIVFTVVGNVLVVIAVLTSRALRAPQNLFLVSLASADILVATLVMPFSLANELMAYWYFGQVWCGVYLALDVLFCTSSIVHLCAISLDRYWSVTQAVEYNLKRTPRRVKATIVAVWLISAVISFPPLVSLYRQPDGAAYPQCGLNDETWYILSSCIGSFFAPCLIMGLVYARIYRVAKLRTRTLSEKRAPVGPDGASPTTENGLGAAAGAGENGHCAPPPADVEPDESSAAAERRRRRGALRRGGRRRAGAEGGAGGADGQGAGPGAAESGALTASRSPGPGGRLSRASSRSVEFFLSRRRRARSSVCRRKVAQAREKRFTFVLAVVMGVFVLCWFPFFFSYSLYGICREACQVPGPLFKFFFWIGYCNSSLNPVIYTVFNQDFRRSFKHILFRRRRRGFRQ

[3] = target: Beta-2 adrenergic receptor (Homo sapiens, UniProt P07550)
[4] = target: T3, Muscarinic acetylcholine receptor M1 (Homo sapiens, UniProt P11229); assay type: functional, cell-based
T3 sequence (P11229 whole entry): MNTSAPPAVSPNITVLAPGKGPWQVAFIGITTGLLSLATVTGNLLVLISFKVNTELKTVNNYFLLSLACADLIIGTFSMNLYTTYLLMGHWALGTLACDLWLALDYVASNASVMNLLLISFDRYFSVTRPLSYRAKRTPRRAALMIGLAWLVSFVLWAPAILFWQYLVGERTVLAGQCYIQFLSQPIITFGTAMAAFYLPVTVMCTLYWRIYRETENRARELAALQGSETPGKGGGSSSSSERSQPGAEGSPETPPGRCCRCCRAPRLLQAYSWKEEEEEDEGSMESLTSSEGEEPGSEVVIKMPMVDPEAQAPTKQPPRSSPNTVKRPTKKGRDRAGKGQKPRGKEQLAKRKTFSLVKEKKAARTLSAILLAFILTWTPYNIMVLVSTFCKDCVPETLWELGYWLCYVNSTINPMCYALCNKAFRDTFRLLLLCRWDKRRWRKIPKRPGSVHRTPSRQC

[5] = target: Cannabinoid receptor 1 (Homo sapiens, UniProt P21554)
[6] = target: Glutamate receptor ionotropic, NMDA 1 (Rattus norvegicus, UniProt P35439)
[7] = target: T4, 5-hydroxytryptamine receptor 2C (Homo sapiens, UniProt P28335)
T4 sequence (P28335 whole entry): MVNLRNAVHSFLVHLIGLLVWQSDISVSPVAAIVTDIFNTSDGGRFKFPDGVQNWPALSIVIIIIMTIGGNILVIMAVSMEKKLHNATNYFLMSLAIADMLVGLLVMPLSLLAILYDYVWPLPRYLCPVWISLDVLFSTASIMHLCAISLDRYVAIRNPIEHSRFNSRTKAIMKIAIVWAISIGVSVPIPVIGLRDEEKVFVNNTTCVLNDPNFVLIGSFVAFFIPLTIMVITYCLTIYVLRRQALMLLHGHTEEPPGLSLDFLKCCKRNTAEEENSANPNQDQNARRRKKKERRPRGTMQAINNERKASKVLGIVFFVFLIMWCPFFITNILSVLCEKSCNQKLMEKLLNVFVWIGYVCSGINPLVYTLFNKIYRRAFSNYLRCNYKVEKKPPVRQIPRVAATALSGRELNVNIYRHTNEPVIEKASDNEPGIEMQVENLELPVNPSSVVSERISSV

[8] = target: T5, 5-hydroxytryptamine receptor 3A (Homo sapiens, UniProt P46098); assay type: functional
T5 sequence (P46098 whole entry): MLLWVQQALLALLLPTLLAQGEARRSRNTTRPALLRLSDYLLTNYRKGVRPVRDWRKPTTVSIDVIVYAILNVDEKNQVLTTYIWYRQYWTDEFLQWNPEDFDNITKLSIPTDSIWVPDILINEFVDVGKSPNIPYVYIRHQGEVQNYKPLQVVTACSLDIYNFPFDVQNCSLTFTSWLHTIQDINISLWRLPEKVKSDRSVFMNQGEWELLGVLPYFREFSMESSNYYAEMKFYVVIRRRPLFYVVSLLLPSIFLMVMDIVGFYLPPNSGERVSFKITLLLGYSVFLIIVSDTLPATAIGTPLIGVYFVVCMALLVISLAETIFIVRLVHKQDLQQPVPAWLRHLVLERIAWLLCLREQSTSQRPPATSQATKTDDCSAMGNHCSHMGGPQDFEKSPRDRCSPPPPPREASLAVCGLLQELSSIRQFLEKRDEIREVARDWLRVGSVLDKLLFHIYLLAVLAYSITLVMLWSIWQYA

[9] = target: cGMP-inhibited 3',5'-cyclic phosphodiesterase 3A (Homo sapiens, UniProt Q14432); assay type: functional
Also: assay procedure not described here.

Sequence of cGMP-inhibited 3',5'-cyclic phosphodiesterase 3A (Q14432 whole entry): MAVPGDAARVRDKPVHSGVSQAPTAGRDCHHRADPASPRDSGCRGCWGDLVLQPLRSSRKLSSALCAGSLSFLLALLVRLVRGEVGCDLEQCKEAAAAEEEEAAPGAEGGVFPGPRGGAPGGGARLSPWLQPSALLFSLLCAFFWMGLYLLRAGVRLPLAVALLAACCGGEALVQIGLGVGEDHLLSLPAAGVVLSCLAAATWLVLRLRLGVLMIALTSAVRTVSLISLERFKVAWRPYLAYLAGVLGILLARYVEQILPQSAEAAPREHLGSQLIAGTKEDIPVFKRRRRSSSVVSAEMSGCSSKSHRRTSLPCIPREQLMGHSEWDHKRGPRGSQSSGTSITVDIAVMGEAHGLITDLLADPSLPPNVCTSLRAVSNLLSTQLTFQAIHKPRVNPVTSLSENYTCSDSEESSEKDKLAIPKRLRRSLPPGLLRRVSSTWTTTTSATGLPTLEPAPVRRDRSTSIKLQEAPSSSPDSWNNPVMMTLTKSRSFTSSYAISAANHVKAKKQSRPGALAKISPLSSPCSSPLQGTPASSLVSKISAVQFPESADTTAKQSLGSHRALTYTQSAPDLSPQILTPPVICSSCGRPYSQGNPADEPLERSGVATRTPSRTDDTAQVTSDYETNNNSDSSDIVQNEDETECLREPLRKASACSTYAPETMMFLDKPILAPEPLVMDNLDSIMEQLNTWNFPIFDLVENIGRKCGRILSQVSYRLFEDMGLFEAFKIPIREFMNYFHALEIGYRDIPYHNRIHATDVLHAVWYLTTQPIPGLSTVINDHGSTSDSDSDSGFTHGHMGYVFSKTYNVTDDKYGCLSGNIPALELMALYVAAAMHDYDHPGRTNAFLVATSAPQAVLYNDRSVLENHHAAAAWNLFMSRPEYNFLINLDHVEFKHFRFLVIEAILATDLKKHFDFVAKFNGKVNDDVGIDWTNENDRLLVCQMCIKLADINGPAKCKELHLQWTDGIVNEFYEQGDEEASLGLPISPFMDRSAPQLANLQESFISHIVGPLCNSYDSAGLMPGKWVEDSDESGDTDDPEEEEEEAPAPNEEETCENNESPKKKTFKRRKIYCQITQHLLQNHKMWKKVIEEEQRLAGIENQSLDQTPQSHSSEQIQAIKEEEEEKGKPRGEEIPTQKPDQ
Sequence of Cannabinoid receptor 1 (P21554 whole entry): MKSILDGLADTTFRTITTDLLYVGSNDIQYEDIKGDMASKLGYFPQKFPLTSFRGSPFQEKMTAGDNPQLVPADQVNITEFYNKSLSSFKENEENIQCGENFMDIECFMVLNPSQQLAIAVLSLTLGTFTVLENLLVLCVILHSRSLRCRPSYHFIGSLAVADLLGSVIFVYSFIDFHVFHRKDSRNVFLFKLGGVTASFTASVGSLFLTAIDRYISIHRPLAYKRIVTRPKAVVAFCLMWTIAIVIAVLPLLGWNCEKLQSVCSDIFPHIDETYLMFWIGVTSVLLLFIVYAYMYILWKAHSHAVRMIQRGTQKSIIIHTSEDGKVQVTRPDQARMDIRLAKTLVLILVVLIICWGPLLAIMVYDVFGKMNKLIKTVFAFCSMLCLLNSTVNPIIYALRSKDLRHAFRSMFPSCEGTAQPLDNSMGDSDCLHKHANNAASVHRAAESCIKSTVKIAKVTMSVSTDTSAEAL
Sequence of Beta-2 adrenergic receptor (P07550 whole entry): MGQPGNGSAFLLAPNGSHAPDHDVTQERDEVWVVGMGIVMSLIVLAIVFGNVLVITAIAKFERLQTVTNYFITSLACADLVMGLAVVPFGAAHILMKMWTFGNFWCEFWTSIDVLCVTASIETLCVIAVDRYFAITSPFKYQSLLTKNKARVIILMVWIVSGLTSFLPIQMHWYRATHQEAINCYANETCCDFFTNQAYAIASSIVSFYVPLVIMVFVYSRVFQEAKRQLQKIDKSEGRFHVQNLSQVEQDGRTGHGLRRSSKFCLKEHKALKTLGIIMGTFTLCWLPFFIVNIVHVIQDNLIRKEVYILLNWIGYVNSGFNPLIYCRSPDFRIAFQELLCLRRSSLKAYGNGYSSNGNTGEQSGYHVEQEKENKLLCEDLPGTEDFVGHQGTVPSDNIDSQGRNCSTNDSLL

| SMILES | AC50 [1] | AC50 [2] | AC50 [3] | AC50 [4] | AC50 [5] | AC50 [6] | AC50 [7] | AC50 [8] | AC50 [9] |
| --- | --- | --- | --- | --- | --- | --- | --- | --- | --- |
| CCCN(CCC)C(=O)Cc1c(-c2ccc(Cl)cc2)nc2ccc(Cl)cn12 [ALPIDEM] | > 30 µM | > 30 µM | > 30 µM | > 10 µM | > 30 µM | > 30 µM | > 30 µM | > 30 µM | > 30 µM |
| CC(=O)O[C@]1(C(C)=O)CC[C@H]2[C@@H]3C=C(C)C4=CC(=O)CC[C@@H]4[C@H]3CC[C@@]21C [NOMEGESTROL ACETATE] | > 30 µM | > 30 µM |  | > 10 µM |  | > 10 µM | > 30 µM | > 30 µM | > 30 µM |
| COc1cc2nccc(Oc3ccc(NC(=O)C4(C(=O)Nc5ccc(F)cc5)CC4)cc3)c2cc1OC [CABOZANTINIB] | 19 µM | 26 µM |  | 2.72 µM |  |  | > 30 µM | > 30 µM | > 30 µM |
